According to patent US9249104B2, “Pyrazole indanyl carboxamides” (BAYER CROPSCIENCE AG, priority 2012, dated 2016):

Experiments:
[1] = logP by HPLC on reversed phase columns (EEC directive 79/831 Annex V.A8); assay type: physicochemical; conditions: method [a]: LC-MS at pH 2.7, 0.1% formic acid in water / acetonitrile; compounds of formula (I), Table 1
Pyrenophora teres = experiment: In vivo preventive test on Pyrenophora teres (net blotch on barley); conditions: graded 14 days after contamination; for Eff. %: 500 ppm, barley plants sprayed 24 h before contamination; for Efficacy: 100 ppm, barley plants, comparison with prior-art compound
Procedure: Barley plants (“Plaisant” variety), sown in starter cups on a 50/50 peat soil-pozzolana substrate and grown at 22° C., are treated at the 1-leaf stage (10 cm height) by spraying with the active ingredient prepared as described above. Plants, used as controls, are treated with the mixture of acetone/tween/DMSO/water not containing the active material. After 24 hours, the plants are contaminated by spraying the leaves with an aqueous suspension of Pyrenophora teres spores (12 000 spores per ml). The spores are collected from a 12-day-old culture. […] Grading (% of efficacy) is carried out 14 days after the contamination, in comparison with the control plants.

Septoria tritici = experiment: In vivo preventive test on Septoria tritici (leaf spot on wheat); conditions: 500 ppm, wheat plants sprayed 24 h before contamination, graded 24 days after contamination
Procedure: Wheat plants (“Scipion” variety), sown in starter cups on a 50/50 peat soil-pozzolana substrate and grown at 22° C., are treated at the 1-leaf stage (10 cm height) by spraying with the active ingredient prepared as described above. Plants, used as controls, are treated with the mixture of acetone/tween/DMSO/water not containing the active material. After 24 hours, the plants are contaminated by spraying the leaves with an aqueous suspension of cryopreserved Septoria tritici spores (500 000 spores per ml). The contaminated wheat plants are incubated for 72 hours at 18° C. and at 100% relative humidity, and then for 21 days at 90% relative humidity. Grading (% of efficacy) is carried out 24 days after the contamination, in comparison with the control plants.

Alternaria brassicae = experiment: In vivo preventive test on Alternaria brassicae (leaf spot on radish); conditions: 500 ppm, radish plants sprayed 24 h before contamination, graded 6 days after contamination
Procedure: Radish plants (“Pernod Clair” variety), sown in starter cups on a 50/50 peat soil-pozzolana substrate and grown at 17° C., are treated at the cotyledon stage by spraying with the active ingredient prepared as described above. Plants, used as controls, are treated with the mixture of acetone/tween/DMSO/water not containing the active material. After 24 hours, the plants are contaminated by spraying the cotyledons with an aqueous suspension of Alternaria brassicae spores (50 000 spores per ml). The spores are collected from a 15-day-old culture. The contaminated radish plants are incubated at 20° C. and at 100% relative humidity. Grading (% of efficacy) is carried out 6 days after the contamination, in comparison with the control plants.

Sphaerotheca fuliginea = experiment: In vivo preventive test on Sphaerotheca fuliginea (powdery mildew on cucurbits); conditions: 500 ppm, gherkin plants sprayed 24 h before contamination, graded 12 days after contamination
Procedure: Gherkin plants (“Vert petit de Paris” variety), sown in starter cups on a 50/50 peat soil-pozzolana substrate and grown at 24° C., are treated at the Z11 cotyledon stage by spraying with the active ingredient prepared as described above. Plants, used as controls, are treated with the mixture of acetone/tween/DMSO/water not containing the active material. After 24 hours, the plants are contaminated by spraying the cotyledons with an aqueous suspension of Sphaerotheca fuliginea spores (100 000 spores per ml). The spores are collected from infected plants. […] Grading (% of efficacy) is carried out 12 days after the contamination, in comparison with the control plants.

Uromyces appendiculatus = experiment: In vivo preventive test on Uromyces appendiculatus (bean rust); conditions: preventive, bean plants, dose of 500 ppm, grading 11 days after contamination
Procedure: Bean plants (“Saxa” variety), sown in starter cups on a 50/50 peat soil-pozzolana substrate and grown at 24° C., are treated at the 2-leaf stage (9 cm height) by spraying with the active ingredient prepared as described above. Plants, used as controls, are treated with the mixture of acetone/tween/DMSO/water not containing the active material. After 24 hours, the plants are contaminated by spraying the leaves with an aqueous suspension of Uromyces appendiculatus spores (150 000 spores per ml). The spores are collected from infected plants and are suspended in water containing 2.5 ml/1 of Tween 80 at 10%. […] Grading (% of efficacy) is carried out 11 days after the contamination, in comparison with the control plants.

Puccinia recondita = experiment: In vivo preventive test on Puccinia recondita (brown rust on wheat); conditions: 500 ppm, wheat plants sprayed 24 h before contamination, graded 12 days after contamination
Procedure: Wheat plants (“Scipion” variety), sown in starter cups on a 50/50 peat soil-pozzolana substrate and grown at 22° C., are treated at the 1-leaf stage (10 cm height) by spraying with the active ingredient prepared as described above. Plants, used as controls, are treated with the mixture of acetone/tween/DMSO/water not containing the active material. After 24 hours, the plants are contaminated by spraying the leaves with an aqueous suspension of Puccinia recondita spores (100 000 spores per ml). The spores are collected from an infected plant and are suspended in water to containing 2.5 ml/l of Tween 80 at 10%. […] Grading (% of efficacy) is carried out 12 days after the contamination, in comparison with the control plants.

Pyricularia oryzae = assay type: in vivo; conditions: 500 ppm, rice plants sprayed 24 h before contamination, graded 6 days after contamination
Botrytis cinerea = experiment: In vivo preventive test on Botrytis cinerea (grey mould); conditions: 500 ppm, gherkin plants sprayed 24 h before contamination, graded 4 to 5 days after contamination
Procedure: Gherkin plants (“Vert petit de Paris” variety), sown in starter cups on a 50/50 peat soil-pozzolana substrate and grown at 24° C., are treated at the Z11 cotyledon stage by spraying with the active ingredient prepared as described above. Plants, used as controls, are treated with the mixture of acetone/tween/DMSO/water not containing the active material. After 24 hours, the plants are contaminated by spraying the cotyledons with an aqueous suspension of cryopreserved Botrytis cinerea spores (50 000 spores per ml). The spores are suspended in a nutrient solution composed of 10 g/L of PDB, 50 g/L of D-Fructose, 2 g/L of NH4NO3 and 1 g/L of KH2PO4. The contaminated gherkin plants are incubated at 17° C. and at 90% relative humidity.

Compound	logP [1]	Eff. % (Pyrenophora teres) [%]	Eff. % (Septoria tritici) [%]	Eff. % (Alternaria brassicae) [%]	Eff. % (Sphaerotheca fuliginea) [%]	Eff. % (Uromyces appendiculatus) [%]	Eff. % (Puccinia recondita) [%]	Efficacy (Pyrenophora teres)	Eff. % (Pyricularia oryzae) [%]	Eff. % (Botrytis cinerea) [%]
CCC1Cc2cccc(NC(=O)c3cn(C)nc3C(F)F)c2C1 (stereo not drawn) [Example 27]	3.35[a]	97	100	79	100	100	100	–	–	–
Cn1cc(C(=O)Nc2cccc3c2CC2CCCCC32)c(C(F)F)n1 (stereo not drawn) [Example 24]	3.81[a]	86	–	–	–	100	89	–	–	–
CC(C)C1Cc2c(NC(=O)c3c(C(F)(F)F)nn(C)c3F)cccc2C1(C)C (racemic) [Example 66]	4.82[a]	83	–	79	98	100	98	–	–	–
Cc1nn(C)c(F)c1C(=O)Nc1cccc2c1CC(C)C2(C)C (stereo not drawn) [Example 8]	3.52[a]	–	–	79	–	100	100	83%	83	–
Cc1nn(C)c(Cl)c1C(=O)Nc1cccc2c1CC(C(C)C)C2(C)C (racemic) [Example 69]	4.76[a]	75	–	–	72	100	88	–	–	–
CC1Cc2c(NC(=O)c3cnn(C)c3C(F)(F)F)cccc2C1(C)C (stereo not drawn) [Example 17]	3.73[a]	–	–	–	–	100	98	–	–	94
CC(C)C1Cc2c(NC(=O)c3cn(C)nc3C(F)F)cccc2C1(C)C (stereo not drawn) [Example 39]	4.27[a]	–	71	98	100	100	98	–	–	–
Cc1nn(C)c(C)c1C(=O)Nc1cccc2c1CC(C)(C)C2C (stereo not drawn) [Example 13]	3.13[a]	75	–	93	–	100	100	–	83	–
Cn1cc(C(=O)Nc2cccc3c2CC2(CCCC2)C3)c(C(F)F)n1 [Example 25]	3.74[a]	71	–	71	95	100	94	–	–	–
CCC1Cc2c(NC(=O)c3c(C)nn(C)c3F)cccc2C1(C)C (stereo not drawn) [Example 37]	3.99[a]	83	71	90	100	100	100	–	–	–
Cc1nn(C)c(F)c1C(=O)Nc1cccc2c1C(C)C(C)C2(C)C (stereo not drawn) [Example 33]	3.52[a]	97	97	92	100	100	98	at least 80%	–	100
